Source: ChEMBL document CHEMBL1201862, “PubChem BioAssay data set” (2004)
Active and inactive are the calls of the source.

Tests used:
[1] = target: T1, Bcl-2-related protein A1 (Mus musculus, UniProt Q07440); type: functional;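 note: confirmatory dose–response counterscreen on Bfl-1, used to check hits from a UBC13 polyubiquitin inhibitor campaign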
T1 sequence (Q07440 whole entry): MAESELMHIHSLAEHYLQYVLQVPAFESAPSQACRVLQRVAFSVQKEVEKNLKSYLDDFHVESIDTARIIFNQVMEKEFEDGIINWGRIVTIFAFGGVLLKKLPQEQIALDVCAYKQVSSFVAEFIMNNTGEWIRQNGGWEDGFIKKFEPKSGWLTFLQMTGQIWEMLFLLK

[2] = target: T2, Ubiquitin-conjugating enzyme E2 N (Homo sapiens, UniProt P61088); type: functional
T2 sequence (P61088 whole entry): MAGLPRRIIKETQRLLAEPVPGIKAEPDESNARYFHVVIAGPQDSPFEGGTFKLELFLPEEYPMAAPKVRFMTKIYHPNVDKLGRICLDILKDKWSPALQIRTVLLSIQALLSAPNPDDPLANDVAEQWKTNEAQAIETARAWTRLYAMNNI

[3] = target: T2, Ubiquitin-conjugating enzyme E2 N; type: functional; remark: listed apart in the source
[4] = target: Induced myeloid leukemia cell differentiation protein Mcl-1 (Homo sapiens, UniProt Q07820); type: functional
Chain of Induced myeloid leukemia cell differentiation protein Mcl-1 (Q07820 whole entry): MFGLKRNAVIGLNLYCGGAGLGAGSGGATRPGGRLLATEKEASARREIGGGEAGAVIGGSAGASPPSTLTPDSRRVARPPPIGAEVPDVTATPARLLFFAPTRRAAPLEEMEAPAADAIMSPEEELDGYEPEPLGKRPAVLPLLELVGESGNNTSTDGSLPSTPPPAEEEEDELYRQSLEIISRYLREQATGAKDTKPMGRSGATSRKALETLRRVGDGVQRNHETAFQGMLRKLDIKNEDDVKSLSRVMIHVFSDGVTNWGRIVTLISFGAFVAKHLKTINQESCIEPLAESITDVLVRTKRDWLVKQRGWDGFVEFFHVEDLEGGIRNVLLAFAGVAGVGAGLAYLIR

[5] = system: INS1; assay: beta cell apoptosis inhibitors, cytokine rescue, dose response, luminescence, retest (AID 449756); type: functional, cell-based; settings: Rattus norvegicus;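 note: cell death triggered by IL-1 beta plus TNF-alpha plus IFN-gamma mixture; protective hits raise ATP signal compared with cytokine alone wells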
[6] = target: T3, Small ubiquitin-related modifier 1 (Homo sapiens, UniProt P63165); assay: inhibitors of SUMO1 peptide binding, dose response, biochemical, fluorescence polarization, uHTS hits (AID 624382); type: functional; settings: read-out: IC50_Mean
T3 sequence (P63165 whole entry): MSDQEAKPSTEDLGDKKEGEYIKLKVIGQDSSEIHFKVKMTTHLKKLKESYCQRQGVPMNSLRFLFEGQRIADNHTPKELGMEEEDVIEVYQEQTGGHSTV

[7] = target: T3, Small ubiquitin-related modifier 1; assay: inhibitors of SUMO1 partner interactions, dose response, biochemical, FRET (AID 624383); type: functional; settings: read-out: IC50_Mean
[8] = inhibitors of Vif binding to APOBEC3G peptide, primary screen, biochemical, TR-FRET, GST-Vif 1-94, biotin-A3G peptide, dose response retest (AID 1117319); type: functional;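 note: TR-FRET signal of purified GST-Vif binding a biotinylated A3G peptide; inhibitors lower the FRET signal by blocking Vif and A3G binding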
[9] = target: DNA dC->dU-editing enzyme APOBEC-3A (Homo sapiens, UniProt P31941); assay: Dose Response confirmation of small molecule APOBEC3A DNA Deaminase Inhibitors via a fluorescence-based single-stranded DNA deaminase assay. [Related pubchem assays (depositor defined):AID493011, AID493024]; type: functional
Chain of DNA dC->dU-editing enzyme APOBEC-3A (P31941 whole entry): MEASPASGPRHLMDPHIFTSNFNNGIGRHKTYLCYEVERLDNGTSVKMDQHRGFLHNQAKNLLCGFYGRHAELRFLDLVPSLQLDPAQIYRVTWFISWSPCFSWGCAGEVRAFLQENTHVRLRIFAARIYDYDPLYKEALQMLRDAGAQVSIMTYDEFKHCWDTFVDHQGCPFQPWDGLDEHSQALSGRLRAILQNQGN

[10] = target: DNA dC->dU-editing enzyme APOBEC-3G (Homo sapiens, UniProt Q9HC16); type: functional;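 note: Dose-response counterscreen measuring inhibition of APOBEC3G DNA deaminase activity, run while confirming APOBEC3A inhibitors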
Chain of DNA dC->dU-editing enzyme APOBEC-3G (Q9HC16 whole entry, the tested form may be a part): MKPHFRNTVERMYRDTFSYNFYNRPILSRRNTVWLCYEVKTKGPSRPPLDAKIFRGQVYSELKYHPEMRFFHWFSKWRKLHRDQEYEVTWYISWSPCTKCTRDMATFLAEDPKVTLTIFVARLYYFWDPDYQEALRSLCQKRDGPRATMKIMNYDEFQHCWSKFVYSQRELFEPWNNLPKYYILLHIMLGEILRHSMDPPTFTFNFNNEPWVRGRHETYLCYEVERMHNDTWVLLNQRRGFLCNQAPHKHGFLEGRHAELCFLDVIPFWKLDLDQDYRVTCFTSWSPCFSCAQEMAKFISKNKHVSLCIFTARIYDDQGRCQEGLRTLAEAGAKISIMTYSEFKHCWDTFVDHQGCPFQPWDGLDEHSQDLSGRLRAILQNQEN

[11] = target: T4, RNA-binding protein pos-1 (Caenorhabditis elegans, UniProt G5EF15); assay: inhibitors of POS-1/mex-3 RNA binding, dose response, biochemical, fluorescence polarization (AID 1964);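 note: purified POS-1 fused to maltose binding protein made in E. coli; potency of compounds blocking POS-1 binding to fluorescent RNA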
T4 sequence (G5EF15 whole entry): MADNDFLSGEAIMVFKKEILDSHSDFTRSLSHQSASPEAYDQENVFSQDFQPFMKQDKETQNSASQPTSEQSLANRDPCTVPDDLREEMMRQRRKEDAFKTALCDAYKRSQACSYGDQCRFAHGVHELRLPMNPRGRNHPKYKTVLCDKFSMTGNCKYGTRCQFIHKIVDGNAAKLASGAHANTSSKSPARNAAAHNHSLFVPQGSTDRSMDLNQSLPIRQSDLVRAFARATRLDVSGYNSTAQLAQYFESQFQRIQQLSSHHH

[12] = target: T5, Zinc finger protein mex-5 (Caenorhabditis elegans, UniProt Q9XUB2); assay: MEX-5/TCR-2 RNA interaction inhibitors, dose response, biochemical, C. elegans, fluorescence polarization (AID 1960)
T5 sequence (Q9XUB2 whole entry): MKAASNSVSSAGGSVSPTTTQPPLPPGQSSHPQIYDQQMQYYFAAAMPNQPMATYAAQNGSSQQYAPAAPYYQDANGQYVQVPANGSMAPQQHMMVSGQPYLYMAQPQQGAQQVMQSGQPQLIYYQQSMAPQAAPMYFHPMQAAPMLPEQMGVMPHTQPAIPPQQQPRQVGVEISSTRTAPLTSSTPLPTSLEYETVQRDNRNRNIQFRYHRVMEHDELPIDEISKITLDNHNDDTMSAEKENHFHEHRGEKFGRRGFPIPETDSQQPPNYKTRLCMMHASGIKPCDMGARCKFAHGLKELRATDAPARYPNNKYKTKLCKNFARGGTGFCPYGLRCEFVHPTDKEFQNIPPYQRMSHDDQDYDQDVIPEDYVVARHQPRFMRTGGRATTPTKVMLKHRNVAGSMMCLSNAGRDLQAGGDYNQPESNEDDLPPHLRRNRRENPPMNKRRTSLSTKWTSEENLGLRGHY

[13] = target: T6, Short transient receptor potential channel 4 (Mus musculus, UniProt Q9QUQ5); assay: mouse TRPC4 channel activators, dose response, cell-based, HEK293 TRPC4/mu-opioid, Fluo-4 calcium (AID 434937); type: functional
T6 sequence (Q9QUQ5 whole entry): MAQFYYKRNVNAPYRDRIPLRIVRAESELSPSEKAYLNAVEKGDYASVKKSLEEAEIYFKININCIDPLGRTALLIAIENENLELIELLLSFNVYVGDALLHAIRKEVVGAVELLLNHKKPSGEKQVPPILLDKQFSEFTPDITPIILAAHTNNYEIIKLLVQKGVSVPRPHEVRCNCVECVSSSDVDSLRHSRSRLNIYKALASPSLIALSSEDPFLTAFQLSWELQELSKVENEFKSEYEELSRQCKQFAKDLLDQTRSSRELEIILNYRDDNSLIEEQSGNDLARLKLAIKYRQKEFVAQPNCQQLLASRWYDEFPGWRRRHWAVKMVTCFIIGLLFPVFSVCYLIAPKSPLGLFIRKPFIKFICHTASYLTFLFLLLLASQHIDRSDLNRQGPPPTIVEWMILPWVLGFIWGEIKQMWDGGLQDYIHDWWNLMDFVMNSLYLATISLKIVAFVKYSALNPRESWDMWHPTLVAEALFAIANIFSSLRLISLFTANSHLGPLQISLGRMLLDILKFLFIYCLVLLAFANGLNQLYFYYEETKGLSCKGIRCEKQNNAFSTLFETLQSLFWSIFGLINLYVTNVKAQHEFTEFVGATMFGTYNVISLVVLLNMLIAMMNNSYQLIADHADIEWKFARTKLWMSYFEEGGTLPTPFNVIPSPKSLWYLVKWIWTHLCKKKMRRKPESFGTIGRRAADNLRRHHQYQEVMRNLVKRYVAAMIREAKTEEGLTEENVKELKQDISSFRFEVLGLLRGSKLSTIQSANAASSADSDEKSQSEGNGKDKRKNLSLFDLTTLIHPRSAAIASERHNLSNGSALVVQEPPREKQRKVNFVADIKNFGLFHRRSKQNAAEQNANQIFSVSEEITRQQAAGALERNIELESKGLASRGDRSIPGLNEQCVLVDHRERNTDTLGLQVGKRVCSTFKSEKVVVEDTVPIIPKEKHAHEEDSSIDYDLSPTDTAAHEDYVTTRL

[14] = target: T7, Histone-lysine N-methyltransferase NSD2 (Homo sapiens, UniProt O96028); type: biochemical
T7 sequence (O96028 whole entry): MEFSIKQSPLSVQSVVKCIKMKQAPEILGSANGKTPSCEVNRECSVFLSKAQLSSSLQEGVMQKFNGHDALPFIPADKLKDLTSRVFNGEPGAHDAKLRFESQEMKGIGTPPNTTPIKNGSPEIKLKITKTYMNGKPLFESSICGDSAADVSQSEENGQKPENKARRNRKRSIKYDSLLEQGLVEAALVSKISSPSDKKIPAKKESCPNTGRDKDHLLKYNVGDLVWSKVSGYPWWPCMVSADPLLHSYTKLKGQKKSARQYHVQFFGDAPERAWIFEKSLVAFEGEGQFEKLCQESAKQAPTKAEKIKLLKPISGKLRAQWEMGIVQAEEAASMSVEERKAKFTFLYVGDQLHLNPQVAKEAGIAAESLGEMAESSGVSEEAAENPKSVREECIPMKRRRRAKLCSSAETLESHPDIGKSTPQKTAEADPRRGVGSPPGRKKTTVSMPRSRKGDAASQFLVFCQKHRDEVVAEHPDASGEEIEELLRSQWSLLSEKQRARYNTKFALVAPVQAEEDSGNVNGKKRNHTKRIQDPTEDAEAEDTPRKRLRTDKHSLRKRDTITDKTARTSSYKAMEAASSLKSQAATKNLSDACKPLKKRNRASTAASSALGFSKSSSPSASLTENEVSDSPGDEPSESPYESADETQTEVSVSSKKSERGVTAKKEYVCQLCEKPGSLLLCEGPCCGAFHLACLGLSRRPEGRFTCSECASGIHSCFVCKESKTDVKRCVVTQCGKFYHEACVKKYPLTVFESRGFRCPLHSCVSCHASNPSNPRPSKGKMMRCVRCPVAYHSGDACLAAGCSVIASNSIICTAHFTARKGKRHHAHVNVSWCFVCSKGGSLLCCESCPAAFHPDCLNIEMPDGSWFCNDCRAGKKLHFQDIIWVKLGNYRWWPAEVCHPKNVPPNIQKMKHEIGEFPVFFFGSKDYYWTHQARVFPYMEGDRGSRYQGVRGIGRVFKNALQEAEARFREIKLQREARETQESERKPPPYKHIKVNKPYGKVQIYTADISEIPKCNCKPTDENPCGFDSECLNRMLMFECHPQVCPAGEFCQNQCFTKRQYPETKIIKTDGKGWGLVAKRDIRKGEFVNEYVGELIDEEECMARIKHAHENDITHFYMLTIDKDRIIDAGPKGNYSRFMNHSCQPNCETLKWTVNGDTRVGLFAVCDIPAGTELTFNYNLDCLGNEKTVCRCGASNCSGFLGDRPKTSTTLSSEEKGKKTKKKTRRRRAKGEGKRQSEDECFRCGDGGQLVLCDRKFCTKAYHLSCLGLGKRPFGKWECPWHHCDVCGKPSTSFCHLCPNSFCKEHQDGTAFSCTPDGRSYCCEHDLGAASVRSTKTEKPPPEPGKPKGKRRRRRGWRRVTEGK

[15] = inhibitors of intracellular T. cruzi replication, confirmation, NIH3T3 host cells, beta-gal luminescence (AID 2044); type: functional, cell-based;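 note: intracellular parasites grown in NIH/3T3 mouse fibroblasts as host cells; luminescent beta-galactosidase reporter signal from transgenic T. cruzi replicating inside host cells; inhibitors lower the luminescence signal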
[16] = cytotoxicity toward NIH3T3 fibroblasts, dose response, counter-screen, cell-based, ATP luminescence, mouse fibroblasts (AID 2010); type: functional;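 note: cells exposed to compound for about 90 hours before reading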

With `Cc1ccc2cc3c(nc2c1)N(c1ccccc1)CC3` the IC50 [1] was > 20 µM (inactive), the IC50 [2] was 18.4 µM (active) and the IC50 [3] was > 20 µM (inactive).

In the case of `O=C(Nc1ccc(Nc2ccncc2)cc1)c1ccc(Nc2ccnc3ccc([N+](=O)[O-])cc23)cc1[N+](=O)[O-]`, the IC50 [4] is reported as 2.46 µM (active), the AC50 [5] is reported as 10.5 µM (active) and the IC50 [6] is reported as > 66.6 µM (inactive). The IC50 [7] was 10.3 µM (active).

For `Nc1nc(SCc2nc(-c3ccccc3)no2)nc(O)c1-c1ccccc1`, the IC50 [8] was > 100 µM (active).

For `Cc1ccc(C(=O)NNC(=O)c2nn(-c3ccc(F)cc3)ccc2=O)cc1`, the IC50 [1] was > 20 µM (inactive), the IC50 [2] was 7.29 µM (active) and the IC50 [3] was 8.19 µM (active).

With `O=C(O)c1cc2nc(-c3cccs3)cc(C(F)(F)F)n2n1` the IC50 [9] was 12.1 µM (active) and the IC50 [10] was > 100 µM (inactive).

For `O=C(O)c1cccc(-n2cccc2/C=C2\NC(=O)N(Cc3ccc(F)cc3)C2=O)c1`, the EC50 [11] was > 300 µM (not active), the EC50 [12] was > 150 µM (not active) and the IC50 [9] was 11.4 µM (active). The IC50 [10] was 29.7 µM (active).

With `CNCCCOc1ccc2c(c1)CCC2` the EC50 [13] was 4.73 µM (active) and the AC50 [14] was > 20 µM (inactive).

In the case of `Cc1ccc(N(C(=O)c2snc(C(N)=O)c2N)C(C(=O)NCCC(C)C)c2ccco2)cc1` (configuration not stated), the EC50 [15] is reported as 1.1 µM (active), the EC50 [16] is reported as > 60 µM (not active) and the IC50 [1] is reported as > 20 µM (inactive). The IC50 [2] was 17 µM (active) and the IC50 [3] was 10.9 µM (active).

With `O=C1c2cccc3cccc(c23)C(=O)N1Cc1cccnc1` the IC50 [1] was > 20 µM (inactive), the IC50 [2] was 19.1 µM (active) and the IC50 [3] was 18.1 µM (active).
